According to the supplement of paper PMC10307832:

What was measured:
Experiment in all cases: relative viability (nuclei count vs DMSO), 5 days (fraction); higher = more cells survive
[1] = compound: CC(C)C[C@@H](C(=O)N[C@H](C(=O)OC1CCCC1)c1ccccc1)[C@H](O)C(=O)NO [Tosedostat] + Cc1nc(Nc2ncc(C(=O)Nc3c(C)cccc3Cl)s2)cc(N2CCN(CCO)CC2)n1 [Dasatinib] (partner 0.075 µM)
In short: (§1)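 Lung cancer cell lines, seeded in 1536-well plates, were treated the following day by pin tool with a single drug or with five library-drug doses (not always all listed) in √10 steps on top of a fixed anchor-drug dose. Cells were fixed and nuclei stained in one step after 5 days, and nuclei were counted. Relative viability is the nuclei count for treated wells divided by that for vehicle wells, reported as medians of duplicate plates.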

[2] = compound: CC1=NN=C(O1)C2=NN=C(C=C2)N3CCC(CC3)OC4=C(C=CC(=C4)F)Cl + CC(C)C[C@H](NC(=O)[C@H](Cc1ccccc1)NC(=O)c1cnccn1)B(O)O [Bortezomib] (partner 0.002 µM)
In short: as §1

[3] = compound: CC1=NN=C(O1)C2=NN=C(C=C2)N3CCC(CC3)OC4=C(C=CC(=C4)F)Cl + Cc1cc(Nc2cc(N3CCN(C)CC3)nc(Sc3ccc(NC(=O)C4CC4)cc3)n2)n[nH]1 [Tozasertib] (partner 0.1 µM)
In short: as §1

[4] = compound: CC1=NN=C(O1)C2=NN=C(C=C2)N3CCC(CC3)OC4=C(C=CC(=C4)F)Cl + Nc1nc2[nH]cc(CCc3ccc(C(=O)N[C@@H](CCC(=O)O)C(=O)O)cc3)c2c(=O)[nH]1 [Pemetrexed] (partner 0.2 µM)
In short: as §1

Cell Line	relative viability ([1]; first compound 0.02 µM)	relative viability ([1]; first compound 0.06325 µM)	relative viability ([1]; first compound 0.2 µM)	relative viability ([1]; first compound 0.6325 µM)	relative viability ([1]; first compound 2 µM)	relative viability ([2]; first compound 0.253 µM)	relative viability ([2]; first compound 0.8 µM)	relative viability ([2]; first compound 2.53 µM)	relative viability ([2]; first compound 8 µM)	relative viability ([3]; first compound 0.253 µM)	relative viability ([3]; first compound 0.8 µM)	relative viability ([3]; first compound 2.53 µM)	relative viability ([3]; first compound 8 µM)	relative viability ([4]; first compound 0.253 µM)	relative viability ([4]; first compound 0.8 µM)	relative viability ([4]; first compound 2.53 µM)	relative viability ([4]; first compound 8 µM)
201T	0.566	0.632	0.635	0.717	0.553	0.484	0.569	0.592	0.552	0.421	0.432	0.427	0.421	0.314	0.255	0.316	0.339
A-427	0.646	0.762	0.733	0.712	0.692	0.867	–	0.864	0.802	0.23	–	0.168	0.168	1.03	0.792	0.922	0.947
ABC-1	0.632	0.598	0.519	0.563	0.481	0.26	0.314	0.237	0.267	0.17	0.193	0.178	0.177	–	–	–	–
BEN	0.348	0.348	0.39	0.446	0.344	0.726	0.771	0.932	0.719	0.505	0.423	0.454	0.46	0.736	0.84	0.806	0.741
CAL-12T	0.316	0.489	0.472	0.381	0.217	1.01	0.867	0.86	0.696	0.26	0.241	0.227	0.216	0.946	1.05	1.03	0.9
COR-L23	0.546	0.469	0.495	0.381	0.332	0.737	0.754	0.836	0.68	0.166	0.131	0.145	0.121	0.179	0.193	0.176	0.181
COR-L 105	0.348	0.37	0.365	0.323	0.298	0.851	0.78	0.983	1.18	0.328	0.375	0.365	0.427	1.2	1.07	1.18	1.29
Calu-6	–	–	–	–	–	0.764	0.807	0.832	0.804	–	–	–	–	–	–	–	–
ChaGo-K-1	0.662	0.567	0.587	0.535	0.394	0.624	0.617	0.794	0.605	0.258	0.226	0.226	0.214	0.245	0.265	0.248	0.266
EBC-1	–	–	–	–	–	0.479	0.476	0.444	0.412	–	–	–	–	–	–	–	–
EKVX	0.586	0.565	0.548	0.588	0.512	0.368	0.301	0.357	0.418	0.258	0.15	0.196	0.196	0.269	0.263	0.343	0.348
EMC-BAC-2	0.317	0.356	0.343	0.371	0.311	1.02	0.964	1.02	0.95	0.314	0.274	0.283	0.284	0.452	0.419	0.485	0.527
EPLC-272H	0.363	0.353	0.316	0.299	0.177	0.667	–	1.05	0.996	0.36	0.228	0.184	0.158	0.313	0.339	0.285	0.371
H3255	0.278	0.35	0.347	0.429	0.33	0.465	0.569	0.478	0.526	0.619	0.489	0.589	0.542	0.506	0.533	0.518	0.577
HARA	0.304	0.282	0.235	0.234	0.195	0.483	0.335	0.353	0.293	0.0993	0.0831	0.0894	0.0804	0.245	0.26	0.239	0.231
HCC-15	0.64	0.625	0.578	0.559	0.462	0.485	0.407	0.415	0.395	0.281	0.29	0.274	0.278	0.215	0.239	0.226	0.214
HCC-44	–	–	–	–	–	0.449	0.43	0.398	0.431	0.545	0.564	0.513	0.487	0.264	0.378	0.282	0.31
HCC-78	0.317	0.439	0.37	0.374	0.493	0.326	0.403	0.393	0.363	0.376	0.319	0.266	0.288	0.888	0.879	0.872	0.853
HCC-366	0.723	0.594	0.665	0.556	0.646	0.394	0.438	0.436	0.395	0.076	0.0654	0.0544	0.0419	0.0851	0.121	0.174	0.15
HCC-827	0.308	0.34	0.301	0.377	0.288	0.514	0.381	0.524	0.523	0.174	0.161	0.171	0.144	0.257	0.244	0.246	0.224

Cell Line	relative viability ([1]; first compound 0.02 µM)	relative viability ([1]; first compound 0.06325 µM)	relative viability ([1]; first compound 0.2 µM)	relative viability ([1]; first compound 0.6325 µM)	relative viability ([1]; first compound 2 µM)	relative viability ([2]; first compound 0.253 µM)	relative viability ([2]; first compound 0.8 µM)	relative viability ([2]; first compound 2.53 µM)	relative viability ([2]; first compound 8 µM)	relative viability ([3]; first compound 0.253 µM)	relative viability ([3]; first compound 0.8 µM)	relative viability ([3]; first compound 2.53 µM)	relative viability ([3]; first compound 8 µM)	relative viability ([4]; first compound 0.253 µM)	relative viability ([4]; first compound 0.8 µM)	relative viability ([4]; first compound 2.53 µM)	relative viability ([4]; first compound 8 µM)
HOP-62	0.678	0.628	0.665	0.685	0.57	0.577	–	0.764	0.419	0.296	0.288	0.205	0.222	0.315	0.318	0.231	0.17
IA-LM	–	–	–	–	–	0.17	0.137	0.132	0.186	–	–	–	–	–	–	–	–
LC-2-ad	0.865	0.51	0.675	0.602	0.337	0.323	0.259	0.328	0.274	0.38	0.354	0.359	0.344	0.267	0.27	0.282	0.239
LK-2	0.29	0.275	0.296	0.4	0.267	–	–	–	–	0.171	0.176	0.176	0.134	0.318	0.256	0.377	0.255
NCI-H358	0.169	0.183	0.208	0.211	0.208	–	–	–	–	0.107	0.0958	0.116	0.0977	0.148	0.167	0.139	0.162
NCI-H522	0.901	0.982	0.858	0.843	0.945	–	–	–	–	0.576	0.578	0.558	0.534	1.02	0.947	1.14	0.959
NCI-H727	0.404	0.339	–	0.311	0.29	0.528	0.702	1	0.696	0.65	0.804	0.53	0.668	–	–	–	–
NCI-H1299	–	–	–	–	–	0.935	0.911	0.858	0.807	–	–	–	–	–	–	–	–
NCI-H1395	0.383	0.426	0.448	0.468	0.41	–	–	–	–	0.69	0.581	0.72	0.683	0.69	0.668	0.831	0.812
NCI-H1563	0.507	0.528	0.459	0.512	0.442	0.872	0.829	0.823	0.934	–	–	–	–	0.735	0.878	0.825	0.648
NCI-H1623	0.585	0.542	0.607	0.552	0.601	–	–	–	–	0.322	0.435	0.372	0.385	–	–	–	–
NCI-H1648	–	–	–	–	–	–	–	–	–	0.242	0.325	0.293	0.344	0.593	0.625	0.647	0.685
NCI-H1703	–	–	–	–	–	0.304	0.278	0.222	0.218	–	–	–	–	–	–	–	–
NCI-H1792	0.777	0.756	0.743	0.79	0.691	0.405	0.423	0.401	0.494	–	–	–	–	0.735	0.648	0.785	0.6
NCI-H1793	0.431	0.408	0.388	0.316	0.37	–	–	–	–	0.368	0.302	0.219	0.195	0.843	0.835	0.977	0.79
NCI-H1944	0.226	0.211	0.215	0.208	0.194	–	–	–	–	0.22	0.216	0.213	0.229	0.372	0.328	0.493	0.369
NCI-H2170	0.575	0.514	0.558	0.63	0.451	–	–	–	–	0.306	0.416	0.392	0.331	0.241	0.218	0.242	0.256
NCI-H2342	0.306	0.367	0.321	0.275	0.295	–	–	–	–	0.356	0.411	0.417	0.404	0.646	0.663	0.701	0.614
SK-MES-1	0.285	0.237	0.329	0.213	0.229	–	–	–	–	0.633	0.641	0.551	0.521	0.681	0.853	0.828	0.628
SW 900	0.54	0.485	0.714	0.875	0.416	–	–	–	–	–	–	0.415	0.477	–	0.444	0.486	0.449
